Experimental data as given in US10370637B2, “Technology for sustaining pluripotency and improved growth of stem cells in culture” (The Regents of the University of California, priority 2015, dated 2019).
Where two headings read alike, the source gives them in different places.

Columns and labels:
hESC = conditions: incubated in mTeSR plus NaOAc.3H2O, then transferred to differentiation medium
Experimental: (6A) Spontaneous differentiation of hESC incubated in mTeSR only then transferred to differentiation medium. […] (6B) hESC incubated in mTeSR plus NaOAc.3H2O, then transferred to differentiation medium.
These colonies were labeled with an antibody to Pax6, a marker for ectodermal differentiation.

H9 hESC = conditions: H9 colony from another lab, mTeSR1 + 10 mM NaOAc.3H2O, 24 hours
[1] = test system: human embryonic stem cells (hESC)
Description: These are hallmarks of healthy pluripotent human embryonic stem cells (hESC) in culture. […] These are not normal pluripotent stem cell morphologies and are observed when colonies begin to differentiate.

hESC colonies = test system: hESC colonies
Experimental: Colonies were incubated in mTeSR or mTeSR plus varying concentrations of NaOAc.3H2O.

[2] = test system: human embryonic stem cells (hESC); remark: listed apart in the source
Experimental: FIG. 2 is a panel showing that the addition of NaOc.3H2O to hPSC culture medium rescued human embryonic stem cell cultures, improved attachment/spreading, and decreased cell death. […] (2E) Comparison of hESC attachment in mTeSR1 or mTeSR1+10 mM NaOAc.3H2O, (2F) Spreading of colonies in mTeSR1 only is poor; colonies are elevated, not flat, (2G) Spreading of colonies in mTeSR1+10 mM NaOAc.3H2O is improved; colonies are flatter and spread faster. (2H-2M) StemCellQC™ time-lapse video bioinformatics analysis of colonies grown in mTeSR1 only or mTeSR1+10 mM NaOAc. Colonies cultured in mTeSR1+10 mM NaOAc grow faster (2H and 2I), are rounder (normal morphology) (2J), have better motility (2K and 2L), and have fewer dead cells (2M).
This is very important and may be a factor in preventing unwanted differentiation. FIGS. 2H-M show video bioinformatics analysis of live hESC growing in vitro. This analysis was done on time-lapse images of living cultures and allows quantitative comparison between cells grown in different media.

hPSC colonies = conditions: Essential-8 + 10 mM NaOAc.3H2O vs Essential-8 alone
[3] = mTeSR1 + 10 mM NaOAc vs mTeSR1 only

Structure (SMILES): CC(=O)[O-].O.O.O.[Na+] [NaOAc.3H2O, sodium acetate trihydrate]
- Pax6 staining (ectodermal marker) (hESC): stained positively for Pax6
- colony morphology (H9 hESC): round morphology with smooth edges
- colony morphology ([1]; mTeSR + 1 mM NaOAc.3H2O): little effect on colony morphology
- colony morphology ([1]; mTeSR + 5 or 10 mM NaOAc.3H2O): colony morphology was restored to normal
- passages without differentiation of colonies ([1]; passaged in mTeSR with the NaOAc.3H2O supplement): over 20 times
- Oct 4 fluorescence, concentration comparison (hESC colonies; 10 μM concentration): Fluorescence was strongest
- Oct4A staining (hESC colonies; mTeSR1 + 5 mM NaOAc): Positive Oct4A staining
- Oct4A staining (hESC colonies; mTeSR1 + 10 mM NaOAc): Positive Oct4A staining
- Sox2 staining (hESC colonies; mTeSR1 + 10 mM NaOAc): Positive Sox2 staining
- Oct 4 labeling (biomarker for pluripotency) (hESC colonies; mTeSR plus varying concentrations of NaOAc.3H2O): bright labeling of Oct 4
- brightness to area ratio (measurement of cell death) [2, 3]: low brightness to area ratio
- cell death [2, 3]: Fewer cells died
- colony motility [2, 3]: Motility was greater
- growth rate [2, 3]: much faster
- solidity (colony roundness) [2, 3]: closer to 1
- spreading of hESC colonies on the substrate ([2]; mTeSR1 + 10 mM NaOAc.3H2O vs mTeSR1): spread faster on the substrate
- attachment of cells to their substrate ([2]; mTeSR1 + 10 mM NaOAc.3H2O vs mTeSR1, modest but significantly different): enhanced the attachment of cells to their substrate
- colony morphology (hPSC colonies): improved morphology
